Test results published in US20090018134A1, “Compounds - 945” (AstraZeneca AB, priority 2007, published 2009).

Target: T1, mTOR (Homo sapiens, UniProt P42345)
T1 construct: FLAG; made in house
Assay: In Vitro mTOR Kinase Assay (Echo), Test (a)(ii)
Type: biochemical
Conditions: read-out: mTOR Kinase Assay (Echo)
Method in brief: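 AlphaScreen read-out: biotinylated substrate phosphorylation was detected with anti-p70 S6K (T389) 1A5 antibody, Protein A acceptor and streptavidin donor beads after overnight dark incubation at room temperature. Enzyme was FLAG-mTOR 1362-2549 from stable HEK293 cells.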

T1 sequence (P42345 1362-2549): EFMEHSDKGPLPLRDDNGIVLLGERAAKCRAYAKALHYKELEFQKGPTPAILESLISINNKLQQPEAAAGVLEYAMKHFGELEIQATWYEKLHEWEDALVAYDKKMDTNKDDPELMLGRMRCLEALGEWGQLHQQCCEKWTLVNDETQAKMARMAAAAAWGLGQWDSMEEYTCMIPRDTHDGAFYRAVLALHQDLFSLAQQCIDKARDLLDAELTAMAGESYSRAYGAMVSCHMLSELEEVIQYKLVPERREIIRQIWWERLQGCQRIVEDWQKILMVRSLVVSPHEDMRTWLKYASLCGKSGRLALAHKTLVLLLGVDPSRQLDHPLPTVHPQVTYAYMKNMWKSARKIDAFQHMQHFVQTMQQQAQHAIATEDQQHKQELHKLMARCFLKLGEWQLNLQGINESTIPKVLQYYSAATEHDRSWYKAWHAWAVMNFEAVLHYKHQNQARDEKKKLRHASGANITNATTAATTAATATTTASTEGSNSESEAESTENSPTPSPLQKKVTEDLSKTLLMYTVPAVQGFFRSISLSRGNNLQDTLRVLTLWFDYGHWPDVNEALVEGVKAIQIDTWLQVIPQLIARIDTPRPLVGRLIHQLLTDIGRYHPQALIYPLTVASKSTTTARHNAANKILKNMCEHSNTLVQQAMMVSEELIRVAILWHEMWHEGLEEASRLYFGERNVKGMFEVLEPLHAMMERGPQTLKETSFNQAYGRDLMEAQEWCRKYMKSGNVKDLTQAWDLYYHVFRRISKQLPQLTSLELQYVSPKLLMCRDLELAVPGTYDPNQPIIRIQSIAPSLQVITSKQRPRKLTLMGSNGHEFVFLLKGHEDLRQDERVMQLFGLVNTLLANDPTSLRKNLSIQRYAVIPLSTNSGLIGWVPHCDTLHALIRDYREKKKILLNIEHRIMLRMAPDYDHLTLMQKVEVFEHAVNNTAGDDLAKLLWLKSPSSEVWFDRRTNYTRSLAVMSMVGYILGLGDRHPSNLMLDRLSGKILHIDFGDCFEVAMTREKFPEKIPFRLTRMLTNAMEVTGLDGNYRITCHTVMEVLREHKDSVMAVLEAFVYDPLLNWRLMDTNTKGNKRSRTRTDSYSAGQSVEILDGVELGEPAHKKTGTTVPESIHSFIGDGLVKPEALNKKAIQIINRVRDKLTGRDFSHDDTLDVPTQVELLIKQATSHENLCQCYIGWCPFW

Row | Compound | IC50 [nM]
1 | C[C@H]1COCCN1c1cc(C2(S(=O)(=O)c3ccc(F)cc3)CC2)nc(-c2ccc(NC(=O)NC(C)(C)CO)cc2)n1 [Example 8f, 1-[4-[4-[1-(4-fluorophenyl)sulfonylcyclopropyl]-6-[(3S)-3-methylmorpholin-4-yl]pyrimidin-2-yl]phenyl]-3-(1-hydroxy-2-methyl-propan-2-yl)urea] | 8.82
2 | CNC(=O)Nc1ccc(-c2nc(N3CCOCC3)cc(C3(S(C)(=O)=O)CCCC3)n2)cc1 [Example 12k, 3-methyl-1-[4-[4-(1-methylsulfonylcyclopentyl)-6-morpholin-4-ylpyrimidin-2-yl]phenyl]urea] | 4.3

Now from value to molecule:

Row | IC50 [nM] | Compound
3 | 6.42 | CCS(=O)(=O)C1(c2cc(N3CCOC[C@@H]3C)nc(-c3ccc(NC(=O)NC4CCC4)cc3)n2)CC1 [Example 11d, 3-cyclobutyl-1-[4-[4-(1-ethylsulfonylcyclopropyl)-6-[(3S)-3-methylmorpholin-4-yl]pyrimidin-2-yl]phenyl]urea]
4 | 1.65 | CCS(=O)(=O)C1(c2cc(N3CCOC[C@@H]3C)nc(-c3ccc(NC(=O)NC4CC4)cc3)n2)CC1 [Example 11, 3-Cyclopropyl-1-[4-[4-(1-ethylsulfonylcyclopropyl)-6-[(3S)-3-methylmorpholin-4-yl]pyrimidin-2-yl]phenyl]urea]

Same assay, conditions: table of enzyme assay Test (a)(ii); read-out: Test (a)(ii) IC50

Row | Compound | IC50 [nM]
5 | Cc1csc(S(=O)(=O)C2(c3cc(N4CCOC[C@@H]4C)nc(-c4ccc(NC(=O)N[C@@H](C)CO)cc4)n3)CC2)n1 [Example 64ac, 3-[(2S)-1-hydroxypropan-2-yl]-1-[4-[4-[(3S)-3-methylmorpholin-4-yl]-6-[1-[(4-methyl-1,3-thiazol-2-yl)sulfonyl]cyclopropyl]pyrimidin-2-yl]phenyl]urea] | 5.29
6 | CC(C)NC(=O)Nc1ccc(-c2nc(N3CCOC[C@@H]3C)cc(C3(S(=O)(=O)c4ccc(Cl)cc4)CC3)n2)cc1 [Example 27d, 1-[4-[4-[1-(4-chlorophenyl)sulfonylcyclopropyl]-6-[(3S)-3-methylmorpholin-4-yl]pyrimidin-2-yl]phenyl]-3-propan-2-ylurea] | 3.07
7 | O=C(NCCO)Nc1ccc(-c2nc(N3CCOCC3)cc(C3(S(=O)(=O)c4ccncc4)CC3)n2)cc1 [Example 36ar, 3-(2-hydroxyethyl)-1-[4-[4-morpholin-4-yl-6-(1-pyridin-4-ylsulfonylcyclopropyl)pyrimidin-2-yl]phenyl]urea] | 9.45
8 | Cc1noc(C)c1S(=O)(=O)C1(c2cc(N3CCOC[C@@H]3C)nc(-c3ccc(NC(=O)NCC(F)F)cc3)n2)CC1 [Example 59d, 3-(2,2-difluoroethyl)-1-[4-[4-[1-[(3,5-dimethyl-1,2-oxazol-4-yl)sulfonyl]cyclopropyl]-6-[(3S)-3-methylmorpholin-4-yl]pyrimidin-2-yl]phenyl]urea] | 32
9 | CNC(=O)Nc1ncc(-c2nc(N3CCOC[C@@H]3C)cc(C3(S(=O)(=O)C4CC4)CC3)n2)cn1 [Example 14x, 1-[5-[4-(1-cyclopropylsulfonylcyclopropyl)-6-[(3S)-3-methylmorpholin-4-yl]pyrimidin-2-yl]pyrimidin-2-yl]-3-methylurea] | 630
10 | Cc1csc(S(=O)(=O)C2(c3cc(N4CCOC[C@@H]4C)nc(-c4ccc(NC(=O)NCCC#N)cc4)n3)CC2)n1 [Example 36o, 3-(2-cyanoethyl)-1-[4-[4-[(3S)-3-methylmorpholin-4-yl]-6-[1-[(4-methyl-1,3-thiazol-2-yl)sulfonyl]cyclopropyl]pyrimidin-2-yl]phenyl]urea] | 3.58
11 | C[C@H]1COCCN1c1cc(C2(S(=O)(=O)CCC(C)(C)O)CC2)nc(-c2ccc(NC(=O)NCCF)cc2)n1 [Example 79d, 3-(2-fluoroethyl)-1-[4-[4-[1-(3-hydroxy-3-methylbutyl)sulfonylcyclopropyl]-6-[(3S)-3-methylmorpholin-4-yl]pyrimidin-2-yl]phenyl]urea] | 16.1
12 | Cc1ccccc1S(=O)(=O)C1(c2cc(N3CCOC[C@@H]3C)nc(-c3ccc(NC(=O)NCCO)cc3)n2)CC1 [Example 54b, 3-(2-hydroxyethyl)-1-[4-[4-[(3S)-3-methylmorpholin-4-yl]-6-[1-(2-methylphenyl)sulfonylcyclo-propyl]pyrimidin-2-yl]phenyl]urea] | 3.17
13 | CCNC(=O)Nc1ccc(-c2nc(N3CCOCC3)cc(C3(S(=O)(=O)c4ccccc4)CC3)n2)cc1 [Example 36dd, 3-[4-[4-[1-(benzenesulfonyl)cyclopropyl]-6-morpholin-4-ylpyrimidin-2-yl]phenyl]-1-ethylurea] | 2.91
14 | C[C@H]1COCCN1c1cc(C2(S(=O)(=O)CCCO)CCOCC2)nc(-c2ccc(NC(=O)Nc3cnn(C)c3)cc2)n1 [Example 36ch, 1-[4-[4-[4-(3-hydroxypropylsulfonyl)oxan-4-yl]-6-[(3S)-3-methylmorpholin-4-yl]pyrimidin-2-yl]phenyl]-3-(1-methylpyrazol-4-yl)urea] | 208
15 | CC(C)CNC(=O)Nc1ccc(-c2nc(N3CCOC[C@@H]3C)cc(C3(S(=O)(=O)c4cc(F)cc(F)c4)CC3)n2)cc1 [Example 19c, 1-[4-[4-[1-(3,5-difluorophenyl)sulfonylcyclopro-pyl]-6-[(3S)-3-methylmorpholin-4-yl]pyrimidin-2-yl]phenyl]-3-(2-methylpropyl)urea] | 21.4

The remaining lines, values ahead:

Row | IC50 [nM] | Compound
16 | 20.8 | CCNC(=O)Nc1ccc(-c2nc(N3CCOC[C@@H]3C)cc(C3(S(=O)(=O)c4ccc(F)cc4C)CC3)n2)cc1 [Example 82e, 3-ethyl-1-[4-[4-[1-(4-fluoro-2-methylphenyl)sulfonylcyclopropyl]-6-[(3S)-3-methylmorpholin-4-yl]pyrimidin-2-yl]phenyl]urea]
17 | 28.5 | C[C@H]1COCCN1c1cc(C2(S(=O)(=O)c3nccs3)CCC2)nc(-c2ccc(NC(=O)NCc3ncc[nH]3)cc2)n1 [Example 98i, 3-(1H-imidazol-2-ylmethyl)-1-[4-[4-[(3S)-3-methylmorpholin-4-yl]-6-[1-(1,3-thiazol-2-ylsulfonyl)cyclobutyl]pyrimidin-2-yl]phenyl]urea]
18 | 11.6 | CCNC(=O)Nc1ccc(-c2nc(N3CCOC[C@@H]3C)cc(C3(S(=O)(=O)C4CCOC4)CC3)n2)cc1 (stereo partly drawn) [Example 94h, 1-ethyl-3-[4-[4-[(3S)-3-methylmorpholin-4-yl]-6-[1-(oxolan-3-ylsulfonyl)cyclopropyl]pyrimidin-2-yl]phenyl]urea]
19 | 4.57 | C[C@H]1COCCN1c1cc(C2(S(=O)(=O)C3CCCCC3)CC2)nc(-c2ccc(NC(=O)NC(C)(C)CO)cc2)n1 [Example 26f, 1-[4-[4-(1-cyclohexylsulfonylcyclopropyl)-6-[(3S)-3-methylmorpholin-4-yl]pyrimidin-2-yl]phenyl]-3-(1-hydroxy-2-methylpropan-2-yl)urea]
20 | 56.7 | CCS(=O)(=O)C1(c2cc(N3CCOC[C@@H]3C)nc(-c3ccc(NC(=S)NCc4ncc[nH]4)cc3)n2)CCC1 [Example 88b, 1-[4-[4-(1-ethylsulfonylcyclobutyl)-6-[(3S)-3-methylmorpholin-4-yl]pyrimidin-2-yl]phenyl]-3-(1H-imidazol-2-ylmethyl)thiourea]
21 | 146 | C[C@H]1COCCN1c1cc(C2(S(=O)(=O)C3CC3)CC2)nc(-c2ccc(NC(=O)NCc3ncc[nH]3)cc2)n1 [Example 64v, 1-[4-[4-(1-cyclopropylsulfonylcyclopropyl)-6-[(3S)-3-methylmorpholin-4-yl]pyrimidin-2-yl]phenyl]-3-(1H-imidazol-2-ylmethyl)urea]
